Experimental data reported in PubChem BioAssay AID248 (DTP/NCI, 2004).
Inconclusive results and toxic doses are left out. Rule as the data show it: active = T/C of 150% or more; inactive = T/C below 125%.

System: L1210 leukemia ip in BDF1 mice, survival T/C
Assay: NCI In Vivo Anticancer Drug Screen. Data for tumor model L1210 Leukemia (intraperitoneal) in B6D2F1 (BDF1) mice
Details: endpoint: mean survival time, higher = longer survival
Procedure, shortened: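 Mice bearing the transplanted tumor received compound or vehicle. Survival of the treated group was divided by that of the vehicle-treated control group to give the ratio.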

[1] = dose: 100.0 mg/kg/injection, schedule: Q01DX009 (ip), vehicle: Klucel (hydroxypropylcellulose) (HPC)
[2] = dose: 100.0 mg/kg/injection, schedule: Q04DX003 (ip), vehicle: Klucel (hydroxypropylcellulose) (HPC)
[3] = dose: 200.0 mg/kg/injection, schedule: Q01DX009 (ip), vehicle: Klucel (hydroxypropylcellulose) (HPC)
[4] = dose: 200.0 mg/kg/injection, schedule: Q04DX003 (ip), vehicle: Klucel (hydroxypropylcellulose) (HPC)
[5] = dose: 400.0 mg/kg/injection, schedule: Q01DX009 (ip), vehicle: Klucel (hydroxypropylcellulose) (HPC)
[6] = dose: 400.0 mg/kg/injection, schedule: Q04DX003 (ip), vehicle: Klucel (hydroxypropylcellulose) (HPC)
[7] = dose: 50.0 mg/kg/injection, schedule: Q01DX001 (ip), vehicle: carboxymethylcellulose (CMC)
[8] = dose: 100.0 mg/kg/injection, schedule: Q01DX001 (ip), vehicle: carboxymethylcellulose (CMC)
[9] = dose: 200.0 mg/kg/injection, schedule: Q01DX001 (ip), vehicle: carboxymethylcellulose (CMC)
[10] = dose: 100.0 mg/kg/injection, schedule: Q01DX001 (ip), vehicle: saline
[11] = dose: 200.0 mg/kg/injection, schedule: Q01DX001 (ip), vehicle: saline
[12] = dose: 400.0 mg/kg/injection, schedule: Q01DX001 (ip), vehicle: saline
[13] = dose: 100.0 mg/kg/injection, schedule: Q04DX003 (ip), vehicle: saline with Tween-80
[14] = dose: 50.0 mg/kg/injection, schedule: Q01DX009 (ip), vehicle: Klucel (hydroxypropylcellulose) (HPC)

Measured: T/C

CCN(CC)CCNCC(Cc1ccccc1)c1ccccc1 (stereo not given)
inactive: dose: 100.0 mg/kg/injection, schedule: Q04DX002 (ip), vehicle: saline 99 % of control | dose: 200.0 mg/kg/injection, schedule: Q04DX002 (ip), vehicle: saline 105 % of control

OC(c1ccc(Cl)cc1)c1ccc(Cl)cc1
inactive: dose: 75.0 mg/kg/injection, schedule: Q01DX001 (ip), vehicle: acetone 97 % of control | dose: 150.0 mg/kg/injection, schedule: Q01DX001 (ip), vehicle: acetone 97 % of control | dose: 300.0 mg/kg/injection, schedule: Q01DX001 (ip), vehicle: acetone 94 % of control

CN1c2ccccc2NP1(=S)c1ccccc1 (stereo not given)
inactive: dose: 100.0 mg/kg/injection, schedule: Q04DX002 (ip), vehicle: saline with Tween-80 90 % of control | dose: 200.0 mg/kg/injection, schedule: Q04DX002 (ip), vehicle: saline with Tween-80 90 % of control | dose: 400.0 mg/kg/injection, schedule: Q04DX002 (ip), vehicle: saline with Tween-80 87 % of control

O=C(Nc1ccc(Cl)cc1)Nc1cccc2ccccc12
inactive: [1] 91 % of control | [2] 94 % of control | [3] 89 % of control | [4] 94 % of control | [5] 97 % of control | [6] 93 % of control

c1ccc2c(c1)Cc1cc(CN3CCOCC3)ccc1-2
inactive: [7] 92 % of control | [8] 100 % of control | [9] 94 % of control | dose: 400.0 mg/kg/injection, schedule: Q01DX001 (ip), vehicle: carboxymethylcellulose (CMC) 94 % of control

CCCCCCCCCCCCCCCCCCNC(=O)Nc1cccc(C)c1C
inactive: [1] 92 % of control | [2] 87 % of control | [3] 89 % of control | [4] 92 % of control | [5] 94 % of control | [6] 88 % of control

CCCCCCOC(=O)CCC(=O)OCCCCCC
inactive: [1] 97 % of control | [2] 92 % of control | [3] 101 % of control | [4] 92 % of control | [5] 97 % of control | [6] 97 % of control

O=C(O)CCOC(C[N+](=O)[O-])C(Cl)(Cl)Cl (stereo not given)
inactive: [1] 96 % of control | [3] 97 % of control | [5] 94 % of control

O=S1(=O)C=Cc2ccccc21
inactive: [10] 106 % of control | dose: 100.0 mg/kg/injection, schedule: Q01DX009 (ip), vehicle: acetone 92 % of control | dose: 100.0 mg/kg/injection, schedule: Q04DX003 (ip), vehicle: saline 95 % of control | [11] 106 % of control | dose: 200.0 mg/kg/injection, schedule: Q01DX009 (ip), vehicle: acetone 91 % of control | dose: 200.0 mg/kg/injection, schedule: Q04DX003 (ip), vehicle: saline 97 % of control | [12] 100 % of control | dose: 400.0 mg/kg/injection, schedule: Q01DX009 (ip), vehicle: acetone 97 % of control | dose: 400.0 mg/kg/injection, schedule: Q04DX003 (ip), vehicle: saline 88 % of control

CCCCCCCCCC[Se]C#N
inactive: dose: 5.0 mg/kg/injection, schedule: Q01DX001 (ip), vehicle: saline 112 % of control | dose: 10.0 mg/kg/injection, schedule: Q01DX001 (ip), vehicle: saline 114 % of control

C=CCC(C)(C)/C=N/N
inactive: dose: 37.5 mg/kg/injection, schedule: Q04DX003 (ip), vehicle: saline 101 % of control | dose: 75.0 mg/kg/injection, schedule: Q04DX003 (ip), vehicle: saline 102 % of control | dose: 150.0 mg/kg/injection, schedule: Q04DX003 (ip), vehicle: saline 98 % of control

C=CC[Se]c1ncnc2c1ncn2C1OC(CO)C(O)C1O (stereo not given)
inactive: dose: 12.5 mg/kg/injection, schedule: Q01DX005 (ip), vehicle: saline 100 % of control | dose: 25.0 mg/kg/injection, schedule: Q01DX005 (ip), vehicle: saline 110 % of control | dose: 50.0 mg/kg/injection, schedule: Q01DX005 (ip), vehicle: saline 104 % of control | dose: 50.0 mg/kg/injection, schedule: Q01DX009 (ip), vehicle: saline 90 % of control | dose: 100.0 mg/kg/injection, schedule: Q01DX009 (ip), vehicle: saline 88 % of control

CC12CCC3C(C1)C(C(=O)O2)C(=O)OC3(C)C (stereo not given)
inactive: dose: 75.0 mg/kg/injection, schedule: Q01DX009 (ip), vehicle: Klucel (hydroxypropylcellulose) (HPC) 99 % of control | dose: 150.0 mg/kg/injection, schedule: Q01DX009 (ip), vehicle: Klucel (hydroxypropylcellulose) (HPC) 101 % of control

CCCCCCc1cc(N=Nc2ccc(S(N)(=O)=O)cc2)c(O)cc1O
inactive: [10] 97 % of control | [11] 102 % of control | [12] 96 % of control

c1ccc(-n2nc3c(c2-c2ccc(OCCN4CCCC4)cc2)CCCc2ccccc2-3)cc1
inactive: [13] 88 % of control

O=C1NC2CCC1c1ccccc12 (stereo not given)
inactive: [7] 110 % of control | [8] 105 % of control | [9] 108 % of control

Cc1cc(OC(=O)Nc2ccccc2C)ccc1Cl
inactive: dose: 100.0 mg/kg/injection, schedule: Q04DX002 (ip), vehicle: Klucel (hydroxypropylcellulose) (HPC) 111 % of control | dose: 200.0 mg/kg/injection, schedule: Q04DX002 (ip), vehicle: Klucel (hydroxypropylcellulose) (HPC) 103 % of control | dose: 400.0 mg/kg/injection, schedule: Q04DX002 (ip), vehicle: Klucel (hydroxypropylcellulose) (HPC) 118 % of control

c1ccc(-c2oc3ccc4ccccc4c3c2-c2ccc(OCCN3CCCC3)cc2)cc1
inactive: dose: 10.0 mg/kg/injection, schedule: Q01DX009 (ip), vehicle: Klucel (hydroxypropylcellulose) (HPC) 102 % of control | dose: 20.0 mg/kg/injection, schedule: Q01DX009 (ip), vehicle: Klucel (hydroxypropylcellulose) (HPC) 101 % of control | dose: 40.0 mg/kg/injection, schedule: Q01DX009 (ip), vehicle: Klucel (hydroxypropylcellulose) (HPC) 101 % of control | dose: 80.0 mg/kg/injection, schedule: Q01DX009 (ip), vehicle: Klucel (hydroxypropylcellulose) (HPC) 101 % of control

O=C1CC(c2c[nH]c3nccnc23)NN1 (stereo not given)
inactive: dose: 6.25 mg/kg/injection, schedule: Q01DX009 (ip), vehicle: water 100 % of control | dose: 12.5 mg/kg/injection, schedule: Q01DX009 (ip), vehicle: water 100 % of control | dose: 25.0 mg/kg/injection, schedule: Q01DX009 (ip), vehicle: water 99 % of control | dose: 50.0 mg/kg/injection, schedule: Q01DX009 (ip), vehicle: water 105 % of control | dose: 100.0 mg/kg/injection, schedule: Q01DX009 (ip), vehicle: water 94 % of control | dose: 200.0 mg/kg/injection, schedule: Q01DX009 (ip), vehicle: water 89 % of control

COc1ccc2c(c1)c(-n1cc([N+](=O)[O-])nc1C)c(C)n2C(=O)c1ccc(Cl)cc1
inactive: [14] 97 % of control | [1] 97 % of control | [3] 93 % of control

O=S1(=O)CCC(NCCSS(=O)(=O)O)CC1
inactive: [13] 96 % of control | dose: 200.0 mg/kg/injection, schedule: Q04DX003 (ip), vehicle: saline with Tween-80 96 % of control | dose: 400.0 mg/kg/injection, schedule: Q04DX003 (ip), vehicle: saline with Tween-80 104 % of control

O=C(Nc1ccccc1F)N(Cc1ccccc1)Cc1ccccc1
inactive: [14] 96 % of control | [1] 104 % of control | [3] 101 % of control

CN(C(=O)C1(C)CC2C=CC1C2)c1ccccc1 (stereo not given)
inactive: dose: 100.0 mg/kg/injection, schedule: Q01DX001 (ip), vehicle: Klucel (hydroxypropylcellulose) (HPC) 100 % of control | dose: 200.0 mg/kg/injection, schedule: Q01DX001 (ip), vehicle: Klucel (hydroxypropylcellulose) (HPC) 102 % of control | dose: 400.0 mg/kg/injection, schedule: Q01DX001 (ip), vehicle: Klucel (hydroxypropylcellulose) (HPC) 97 % of control

O=Cc1[nH]c(=O)[nH]c(=O)c1Br
inactive: dose: 50.0 mg/kg/injection, schedule: Q01DX009 (ip), vehicle: saline with Tween-80 94 % of control | dose: 100.0 mg/kg/injection, schedule: Q01DX001 (ip), vehicle: saline with Tween-80 112 % of control | dose: 100.0 mg/kg/injection, schedule: Q01DX009 (ip), vehicle: saline with Tween-80 98 % of control | dose: 200.0 mg/kg/injection, schedule: Q01DX001 (ip), vehicle: saline with Tween-80 116 % of control

N#Cc1ccccc1CC(=O)c1ccccc1
inactive: dose: 50.0 mg/kg/injection, schedule: Q01DX001 (ip), vehicle: saline 101 % of control | [10] 97 % of control | [11] 93 % of control | [12] 100 % of control

COc1ccc(NC(=O)Oc2ccc(OC)cc2)cc1
inactive: [1] 103 % of control | [2] 97 % of control | [3] 95 % of control | [4] 89 % of control | [5] 89 % of control | [6] 91 % of control
